Data published in patent US20100099700A1, “HYDROGENATED PYRIDO (4,3-B) INDOLES FOR TREATING AMYOTROPHIC LATERAL SCLEROSIS (ALS)” (priority 2006, published 2010).
Entries after “also recorded” stand apart in the source; their conditions may differ. Read-outs that look alike come from different tables or passages of the source.

Legend:
[1] = test system: transgenic Drosophila engineered to express the mutant huntingtin protein in all their neurons; settings: historical positive control; cited from earlier work
[2] = test system: wildtype Drosophila fruit flies; assay: Toxicity of dimebon in wildtype Drosophila (eclosion number and timing); format: in vivo; settings: daily
Method: Dimebon was evaluated for toxicity levels in wildtype Drosophila fruit flies as described in U.S. Provisional Patent Application No. 60/723,403. Dimebon was administered daily at doses ranging from 10 μM to 1 mM to explore its toxicity. An untreated control group was also studied in this experiment. The concentrations given were concentrations of dimebon in the food that animals drink/eat ad libitum. The food consisted of cornmeal, dextrose, yeast and agar.
About 500 wild type Drosophila eggs were collected on grape juice plates, washed with distilled water and transferred 100 per vial to grow at 25 degrees C. The adult progeny were scored after eclosing (emerging from the pupal case) beginning 10 days later. The criteria used for toxicity were the number (%) of animals that eclose and the time of the eclosing. For example, fewer animals may emerge from the pupal case if a drug is toxic or the same number of animals may eclose but more slowly than the untreated control group.

[3] = test system: transgenic Drosophila engineered to express the mutant huntingtin protein in all their neurons; assay: Inhibition of mutant huntingtin-induced neurodegeneration of photoreceptor neurons in Drosophila eyes (pseudopupil method); format: in vivo; settings: 7 days
Method: Dimebon was administered to one group of transgenic Drosophila engineered to express the mutant huntingtin protein in all their neurons as described in U.S. Provisional Patent Application No. 60/723,403. This was accomplished by cloning a foreign gene into transposable p-element DNA vectors under control of a yeast upstream activator sequence that was activated by the yeast GAL4 transcription factor. These promoter fusions were injected into fly embryos to produce transgenic animals. The foreign gene is silent until crossed to another transgenic strain of flies expressing the GAL4 gene in a tissue specific manner. The Elav>Gal4 which expresses the transgene in all neurons from birth until death was used in the experiments described. The two types of transgenic animals were crossed in order to collect enough closely matched aged controls to study. The crossed aged-matched adults (−20 per dosing group) were placed on drug containing food for 7 days. Animals were transferred to fresh food daily to minimize any effects caused by instability of the compounds. Survival was scored daily. At day 7, animals were sacrificed and the number of photoreceptor neurons surviving was counted.

G93AmSOD mice = assay: G93AmSOD transgenic mouse treatment model (time to stage 2 / stage 1 disease); format: in vivo
Method: For this study, G93AmSOD mice were randomized into 4 treatment groups. Mice were weaned and raised on a normal diet for 85 days. Beginning at approximately day 80 or earlier if noted clinically, animals underwent daily assessment for hind limb weakness (time to stage 3 disease). In general, this occurred within a week of day 85. At 85 days, mice were given dimebon in the drinking water at the following concentrations: vehicle control (0 mg/kg/day), low dose (3 mg/kg/day), medium dose (10 mg/kg/day), and high dose (30 mg/kg/day). The drinking water was changed every 3-4 days, and each cage held approximately 3-5 animals.
Animals were weighed and analyzed daily to assess their strength and function. The day during which hind limb paralysis occurred was recorded (progression to stage 2 disease). Also recorded was the day at which the animals could no longer right themselves after 30 seconds (progression to stage 1 disease—a surrogate for mortality). Upon reaching stage 1 disease, animals were euthanized. […] When animals were no longer able to reliably reach the drinking water, they were given their daily mg/kg dose by intraperitoneal injection. Analyses were performed to compare the groups in terms of time to reach stage 2 and time to reach stage 1. As described further below, a Cox proportional hazards model including the effect of treatment group was fit.
A Cox proportional hazards regression model including the effect of treatment group was fit for the time to stage 2 for both sexes combined. In addition to testing the null hypothesis of no difference among the four groups, pair wise comparisons of each of the treated groups to the control group were tested. The model was fit using the SAS PHREG procedure. The same type of model was then fit to the data for each sex separately.
A Cox proportional hazards regression model including the effect of treatment group was fit for the time to stage 1 for both sexes combined. In addition to testing the null hypothesis of no difference among the four groups, pair wise comparisons of each of the treated groups to the control group were tested. The model was fit using the SAS PHREG procedure. The same type of model was then fit to the data for each sex separately.

primary chick neurons [4] = assay: 2% growth factor withdrawal (low serum) assay, MTT viability; format: cell-based, chicken
Method: (§1) Cells: Lohman Brown chicken embryo hybrids were used for the assay. One-day-old fertilised eggs were purchased from a local chicken breeder (Schropper Geflügel GmbH, Austria) and stored in the lab under appropriate conditions (12° C. and 80% humidity). At embryonic day 0 eggs were transferred into a breeding incubator and stored under permanent turning until embryonic day 8 at 37.8° C. and 55% humidity. Approximately five to six chicken embryos were used for isolation of neurons per experiment.
(§2) Eggs were wiped with 70% ethanol and cracked with large forceps at the blunt end. After decapitation of the embryo, the tissue covering the telencephalon was removed and hemispheres collected. After removing any loose tissue and remaining meningeal membranes, hemispheres were transferred into a dish containing nutrition medium. The tissue was dissociated mechanically by using a 1 ml pipette and by squeezing 3 times through a sterile nylon sieve with a pore size of 100 μm.
Poly-D-Lysine coated 96-well microtiter plates (Biocoat) were used to culture the cells. Culture medium (160 μl) containing 3×10^5 cells/ml nutrition medium (48 000 cells/well) were added to each well of a microtiter plate Plates were kept at 37° C., 95% humidity and 5% CO2 without change of media. Neurons begin to extend processes after a few hours in culture.
Low Serum Culture Conditions: The low serum medium used for the 2% growth factor withdrawal experiments described here includes EMEM with 1 g glucose/l and 2% FCS. The control medium includes DMEM with 4.5 g glucose/l and 5% Nu Serum. […]
Dimebon was applied to the cells on day 1 for the whole experimental period of 8 days. Viability of cells was determined with the MTT assay using a plate-reader (570 nM). […] Since this reaction is catalysed in living cells only the assay can be used for the quantification of cell viability. […] To estimate optical density a plate-reader (Anthos HT II) was used at wavelength 570 nM. […]

primary chick neurons [5] = assay: 2% growth factor withdrawal (low serum) assay, AM-Calcein; format: cell-based, chicken; settings: p<0.01, 8 days
Method: as §1, §2
Poly-D-Lysine coated 96-well microtiter plates (Biocoat) were used to culture the cells. Culture medium (160 μl) containing 3×10^5 cells/ml nutrition medium (48 000 cells/well) were added to each well of a microtiter plate Plates were kept at 37° C., 95% humidity and 5% CO2 without change of media. Neurons begin to extend processes after a few hours in culture. […]

[6] = 3 mg/kg/day versus vehicle, both sexes combined
[7] = 3 mg/kg/day versus vehicle, females
[8] = 3 mg/kg/day versus vehicle, males
[9] = 3 mg/kg/day, both sexes combined
[10] = 10 mg/kg/day versus vehicle, both sexes combined
[11] = 10 mg/kg/day versus vehicle, females
[12] = 10 mg/kg/day versus vehicle, males
[13] = 10 mg/kg/day, both sexes combined
[14] = 30 mg/kg/day versus vehicle, both sexes combined
[15] = 30 mg/kg/day versus vehicle, females
[16] = 30 mg/kg/day versus vehicle, males
[17] = 30 mg/kg/day, both sexes combined

Question: Which “rescue of photoreceptor neurons” value [1] does the source give for `C[C@@H](N)[C@H]1CC[C@H](C(=O)Nc2ccncc2)CC1` [Y-27632] here?
Answer: strongly rescuing

Question: With `Cc1ccc2c(c1)c1c(n2CCc2ccc(C)nc2)CCN(C)C1.Cl.Cl` [dimebon, 2,8-dimethyl-5-(2-(6-methyl-3-pyridyl)-ethyl)-2,3,4,5-tetrahydro-1H-pyrido(4,3-b)indol dihydrochloride] as the compound, how does the “% of animals eclosing” value ([2]; 1 mM in food) read?
Answer: decrease

Question: And the “timing of emergence slowed” value ([2]; 1 mM in food)?
Answer: approximately 1 day

Question: What about the “toxicity (% of animals that eclose and time of eclosing)” value ([2]; doses below 1 mM in food, dihydrochloride) of the same compound?
Answer: no significant toxicity; also recorded: did not show significant toxicity

Question: And the “rescue of photoreceptor neurons” value ([3]; 10 μM in food)?
Answer: lesser but still apparent rescue of neurons

Question: And the “rescue of photoreceptor neurons compared to untreated controls” value ([3]; 100 μM in food)?
Answer: statistically significant (p=0.0014) rescue of neurons

Question: What about the “rescue of photoreceptor neurons” value ([3]; 1 mM in food) of the same compound?
Answer: still appeared to cause neuronal rescue, but to a lesser extent

Question: And the “Time to Stage 1: hazard ratio (Cox proportional hazards)” value (“Time to Stage 1: hazard ratio” for short) (G93AmSOD mice; [6])?
Answer: 1.112

Question: What about the “Time to Stage 2: hazard ratio (Cox proportional hazards)” value (“Time to Stage 2: hazard ratio” below) (G93AmSOD mice; [6]) of the same compound?
Answer: 0.969

Question: What about the “Time to Stage 1: hazard ratio” value (G93AmSOD mice; [7]) of the same compound?
Answer: 1.089

Question: And the “Time to Stage 2: hazard ratio” value (G93AmSOD mice; [7])?
Answer: 0.882

Question: And the “Time to Stage 1: hazard ratio” value (G93AmSOD mice; [8])?
Answer: 0.967

Question: And the “Time to Stage 2: hazard ratio” value (G93AmSOD mice; [8])?
Answer: 0.984

Question: What about the “Mean Time to Stage 1 (Expressed as a Percentage of the Mean in the Vehicle Group)” value (G93AmSOD mice; [9]) of the same compound?
Answer: 98.8%

Question: And the “Mean Time to Stage 2 (Expressed as a Percentage of the Mean in the Vehicle Group)” value (G93AmSOD mice; [9])?
Answer: 99.8%

Question: And the “Mean Time to Stage 1 (Expressed as a Percentage of the Mean in the Vehicle Group)” value (G93AmSOD mice; 3 mg/kg/day, females)?
Answer: 97.4%

Question: And the “Mean Time to Stage 2 (Expressed as a Percentage of the Mean in the Vehicle Group)” value (G93AmSOD mice; 3 mg/kg/day, females)?
Answer: 100.2%

Question: And the “Mean Time to Stage 1 (Expressed as a Percentage of the Mean in the Vehicle Group)” value (G93AmSOD mice; 3 mg/kg/day, males)?
Answer: 100.2%

Question: And the “Mean Time to Stage 2 (Expressed as a Percentage of the Mean in the Vehicle Group)” value (G93AmSOD mice; 3 mg/kg/day, males)?
Answer: 99.4%

Question: What about the “Time to Stage 1: hazard ratio” value (G93AmSOD mice; [10]) of the same compound?
Answer: 0.738

Question: And the “Time to Stage 2: hazard ratio” value (G93AmSOD mice; [10])?
Answer: 0.652

Question: What about the “Time to Stage 1: hazard ratio” value (G93AmSOD mice; [11]) of the same compound?
Answer: 0.855

Question: And the “Time to Stage 2: hazard ratio” value (G93AmSOD mice; [11])?
Answer: 0.659

Question: And the “Time to Stage 1: hazard ratio” value (G93AmSOD mice; [12])?
Answer: 0.524

Question: What about the “Time to Stage 2: hazard ratio” value (G93AmSOD mice; [12]) of the same compound?
Answer: 0.545

Question: And the “Mean Time to Stage 1 (Expressed as a Percentage of the Mean in the Vehicle Group)” value (G93AmSOD mice; [13])?
Answer: 103.3%

Question: What about the “Mean Time to Stage 2 (Expressed as a Percentage of the Mean in the Vehicle Group)” value (G93AmSOD mice; [13]) of the same compound?
Answer: 104.9%

Question: What about the “Mean Time to Stage 1 (Expressed as a Percentage of the Mean in the Vehicle Group)” value (G93AmSOD mice; 10 mg/kg/day, females) of the same compound?
Answer: 102.3%

Question: What about the “Mean Time to Stage 2 (Expressed as a Percentage of the Mean in the Vehicle Group)” value (G93AmSOD mice; 10 mg/kg/day, females) of the same compound?
Answer: 104.9%

Question: And the “Mean Time to Stage 1 (Expressed as a Percentage of the Mean in the Vehicle Group)” value (G93AmSOD mice; 10 mg/kg/day, males)?
Answer: 104.2%

Question: What about the “Mean Time to Stage 2 (Expressed as a Percentage of the Mean in the Vehicle Group)” value (G93AmSOD mice; 10 mg/kg/day, males) of the same compound?
Answer: 104.9%

Question: What about the “Time to Stage 1: hazard ratio” value (G93AmSOD mice; [14]) of the same compound?
Answer: 0.505

Question: And the “Time to Stage 2: hazard ratio” value (G93AmSOD mice; [14])?
Answer: 0.522

Question: And the “Time to Stage 1: hazard ratio” value (G93AmSOD mice; [15])?
Answer: 0.314

Question: And the “Time to Stage 2: hazard ratio” value (G93AmSOD mice; [15])?
Answer: 0.359

Question: And the “Time to Stage 1: hazard ratio” value (G93AmSOD mice; [16])?
Answer: 0.647

Question: And the “Time to Stage 2: hazard ratio” value (G93AmSOD mice; [16])?
Answer: 0.698

Question: What about the “Mean Time to Stage 1 (Expressed as a Percentage of the Mean in the Vehicle Group)” value (G93AmSOD mice; [17]) of the same compound?
Answer: 104.7%

Question: What about the “Mean Time to Stage 2 (Expressed as a Percentage of the Mean in the Vehicle Group)” value (G93AmSOD mice; [17]) of the same compound?
Answer: 104.8%

Question: And the “Mean Time to Stage 1 (Expressed as a Percentage of the Mean in the Vehicle Group)” value (G93AmSOD mice; 30 mg/kg/day, females)?
Answer: 107.0%

Question: And the “Mean Time to Stage 2 (Expressed as a Percentage of the Mean in the Vehicle Group)” value (G93AmSOD mice; 30 mg/kg/day, females)?
Answer: 107.7%

Question: What about the “Mean Time to Stage 1 (Expressed as a Percentage of the Mean in the Vehicle Group)” value (G93AmSOD mice; 30 mg/kg/day, males) of the same compound?
Answer: 102.4%

Question: What about the “Mean Time to Stage 2 (Expressed as a Percentage of the Mean in the Vehicle Group)” value (G93AmSOD mice; 30 mg/kg/day, males) of the same compound?
Answer: 101.8%

Question: And the Emax at 6.25 µM (primary chick neurons [4]; Gallus gallus, Neuron, 192 h, 6250 nM, 8 days, read-out: maximum effect in the MTT assay, above control)?
Answer: ~287%

Question: And the “Dimebon concentrations at which statistically significant differences compared to control were achieved” value (primary chick neurons [4]; MTT, p<0.05, 8 days)?
Answer: ≥ 1250 nM

Question: What about the “effect in the MTT assay” value (primary chick neurons [4]; highest tested concentration 31250 nM) of the same compound?
Answer: less than what was achieved at a concentration of 6250 nM

Question: What about the “Dimebon concentrations at which statistically significant differences compared to control were achieved” value (primary chick neurons [5]) of the same compound?
Answer: ≥ 1250 nM
